Measured values reported in PubChem BioAssay AID1259411 (Chemical Carcinogenesis Research Information System (CCRIS), 2018).
Calls of active or inactive are those of the source. No rule for the calls is given here.

Tested on: rodent carcinogenicity bioassays, tumor incidence
Experiment: CCRIS carcinogenicity studies
Summary of the method: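 NCI-built, expert-reviewed records of carcinogenicity and related test outcomes (mutagenicity, tumor promotion/inhibition) compiled from published and report sources, historical span 1985-2011, not updated.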

In the case of `O=c1ccc2ccccc2o1`, the carcinogen call (Species: MOUSE, Strain/Sex: B6C3F1/FEMALE, Route: GAVAGE, Dose: 0, 50, 100, 200 MG/KG BW IN CORN OIL 1/D 5 D/WK FOR 103 WK (STUDY DURATION: 103 WK), Dose: 0, 50, 100, 200 MG/KG BW IN CORN OIL 1/D 5 D/WK FOR 103 WK (STUDY DURATION: 103 WK), Tumor Site: Type of Lesion: LIVER: HEPATOCELLULAR ADENOMA, HEPATOCELLULAR ADENOMA OR CARCINOMA, LUNG: ALVEOLAR/BRONCHIOLAR ADENOMA, ALVEOLAR/BRONCHI) is reported as “active; positive”, the carcinogen call (Species: MOUSE, Strain/Sex: B6C3F1/MALE, Route: GAVAGE, Dose: 0, 50, 100, 200 MG/KG BW IN CORN OIL 1/D 5 D/WK FOR 103 WK (STUDY DURATION: 103 WK), Dose: 0, 50, 100, 200 MG/KG BW IN CORN OIL 1/D 5 D/WK FOR 103 WK (STUDY DURATION: 103 WK), Tumor Site: Type of Lesion: LUNG: ALVEOLAR/BRONCHIOLAR ADENOMA, ALVEOLAR/BRONCHIOLAR ADENOMA OR CARCINOMA) is reported as “active; positive” and the carcinogen call (Species: MOUSE, Strain/Sex: CD-1/FEMALE, Route: ORAL, Dose: 0, 300, 1000, 3000 PPM IN DIET FOR THE DURATION OF STUDY (STUDY DURATION: 109 WK), Dose: 0, 300, 1000, 3000 PPM IN DIET FOR THE DURATION OF STUDY (STUDY DURATION: 109 WK)) is reported as “inactive; negative”. The carcinogen call (Species: MOUSE, Strain/Sex: CD-1/MALE, Route: ORAL, Dose: 0, 300, 1000, 3000 PPM IN DIET FOR THE DURATION OF STUDY (STUDY DURATION: 101 WK), Dose: 0, 300, 1000, 3000 PPM IN DIET FOR THE DURATION OF STUDY (STUDY DURATION: 101 WK)) was “inactive; negative”, the carcinogen call (Species: RAT, Route: ORAL, Tumor Site: Type of Lesion: BILE DUCT) was “active; positive” and the carcinogen call (Species: RAT, Strain/Sex: F344/FEMALE, Route: GAVAGE, Dose: 0, 25, 50, 100 MG/KG BW IN CORN OIL 1/D 5 D/WK FOR 103 WK (STUDY DURATION: 103 WK), Dose: 0, 25, 50, 100 MG/KG BW IN CORN OIL 1/D 5 D/WK FOR 103 WK (STUDY DURATION: 103 WK), Tumor Site: Type of Lesion: KIDNEY (RENAL TUBULE): ADENOMA) was “equivocal”. For the same compound, the carcinogen call (Species: RAT, Strain/Sex: F344/MALE, Route: GAVAGE, Dose: 0, 25, 50, 100 MG/KG BW IN CORN OIL 1/D 5 D/WK FOR 103 WK (STUDY DURATION: 103 WK), Dose: 0, 25, 50, 100 MG/KG BW IN CORN OIL 1/D 5 D/WK FOR 103 WK (STUDY DURATION: 103 WK), Tumor Site: Type of Lesion: KIDNEY (RENAL TUBULE): ADENOMA) was “active; positive”, the carcinogen call (Species: RAT, Strain/Sex: SPRAGUE-DAWLEY/FEMALE, Route: ORAL, Dose: 0, 333, 1000, 2000 PPM IN DIET FOR DURATION OF STUDY ADMINISTERED TO RATS EXPOSED TO THE SAME DOSES DURING GESTATION AND, Dose: 0, 333, 1000, 2000 PPM IN DIET FOR DURATION OF STUDY ADMINISTERED TO RATS EXPOSED TO THE SAME DOSES DURING GESTATION AND, Tumor Site: Type of Lesion: LIVER: CHOLANGIOCARCINOMA, PARENCHYMAL TUMORS) was “active; positive” and the carcinogen call (Species: RAT, Strain/Sex: SPRAGUE-DAWLEY/MALE, Route: ORAL, Dose: 0, 333, 1000, 2000 PPM IN DIET FOR DURATION OF STUDY ADMINISTERED TO RATS EXPOSED TO THE SAME DOSES DURING GESTATION AND, Dose: 0, 333, 1000, 2000 PPM IN DIET FOR DURATION OF STUDY ADMINISTERED TO RATS EXPOSED TO THE SAME DOSES DURING GESTATION AND, Tumor Site: Type of Lesion: LIVER: CHOLANGIOCARCINOMA, PARENCHYMAL TUMORS) was “active; positive”.

With `COP(=S)(OC)SCn1nnc2ccccc2c1=O` the carcinogen call (Species: MOUSE, Strain/Sex: B6C3F1/FEMALE, Route: ORAL, Dose: 0, 62.5, 125 PPM IN DIET FOR 80 WK (STUDY DURATION: 92-93 WK), Dose: 0, 62.5, 125 PPM IN DIET FOR 80 WK (STUDY DURATION: 92-93 WK)) was “inactive; negative”, the carcinogen call (Species: MOUSE, Strain/Sex: B6C3F1/MALE, Route: ORAL, Dose: 0, 31.3, 62.5 PPM IN DIET FOR 80 WK (STUDY DURATION: 92-93 WK), Dose: 0, 31.3, 62.5 PPM IN DIET FOR 80 WK (STUDY DURATION: 92-93 WK)) was “inactive; negative” and the carcinogen call (Species: RAT, Strain/Sex: OSBORNE-MENDEL/FEMALE, Route: ORAL, Dose: 0, 62.5, 125 PPM IN DIET FOR 80 WK (STUDY DURATION: 114-115 WK), Dose: 0, 62.5, 125 PPM IN DIET FOR 80 WK (STUDY DURATION: 114-115 WK)) was “inactive; negative”. For the same compound, the carcinogen call (Species: RAT, Strain/Sex: OSBORNE-MENDEL/MALE, Route: ORAL, Dose: 0, 78, 156 PPM IN DIET FOR 80 WK (STUDY DURATION: 114-115 WK), Dose: 0, 78, 156 PPM IN DIET FOR 80 WK (STUDY DURATION: 114-115 WK), Tumor Site: Type of Lesion: THYROID GLAND: TUMOR, PANCREAS: ISLET CELL ADENOMA OR CARCINOMA) was “equivocal”, the carcinogen call (Species: Rat, Strain/Sex: Wistar/Female, Route: Oral, Dose: 0, 15, 45 ppm (vehicle= 1% DAB8 peanut oil) in feed for 24 mo., Dose: 0, 15, 45 ppm (vehicle= 1% DAB8 peanut oil) in feed for 24 mo.) was “inactive; negative; purity = 87.2%” and the carcinogen call (Species: Rat, Strain/Sex: Wistar/Male, Route: Oral, Dose: 0, 15, 45 ppm (vehicle= 1% DAB8 peanut oil) in feed for 24 mo., Dose: 0, 15, 45 ppm (vehicle= 1% DAB8 peanut oil) in feed for 24 mo.) was “inactive; negative; purity = 87.2%”.

For `c1ccc2nc3c(cc2c1)c1c(c2ccccc23)O1`, the carcinogen call (Species: MOUSE, Strain/Sex: SWISS/FEMALE, Route: INTRAPERITONEAL, Dose: 0, 1.05 UMOL GIVEN AS 150 NMOL IN 5 µL DMSO WITHIN 24 HR OF BIRTH, 300 NMOL IN 10 µL DMSO ON D 8 OF LIFE, AND 600 NMOL I, Tumor Site: Type of Lesion: LUNG: ADENOMA) was “active; positive” and the carcinogen call (Species: MOUSE, Strain/Sex: SWISS/MALE, Route: INTRAPERITONEAL, Dose: 0, 1.05 UMOL GIVEN AS 150 NMOL IN 5 µL DMSO WITHIN 24 HR OF BIRTH, 300 NMOL IN 10 µL DMSO ON D 8 OF LIFE, AND 600 NMOL I) was “inactive; negative”.

`O=Cc1ccco1` was tested, and the carcinogen call (Species: MOUSE, Strain/Sex: B6C3F1/FEMALE, Route: GAVAGE, Dose: 0, 50, 100, 175 MG/KG IN CORN OIL 5 D/WK FOR 103 WK (STUDY DURATION: 105 WK), Dose: 0, 50, 100, 175 MG/KG IN CORN OIL 5 D/WK FOR 103 WK (STUDY DURATION: 105 WK), Tumor Site: Type of Lesion: LIVER: HEPATOCELLULAR ADENOMA, HEPATOCELLULAR ADENOMA OR CARCINOMA, FORESTOMACH: SQUAMOUS PAPILLOMA) was “active; positive”, the carcinogen call (Species: MOUSE, Strain/Sex: B6C3F1/MALE, Route: GAVAGE, Dose: 0, 50, 100, 175 MG/KG IN CORN OIL 5 D/WK FOR 103 WK (STUDY DURATION: 105 WK), Dose: 0, 50, 100, 175 MG/KG IN CORN OIL 5 D/WK FOR 103 WK (STUDY DURATION: 105 WK), Tumor Site: Type of Lesion: LIVER: HEPATOCELLULAR ADENOMA, HEPATOCELLULAR CARCINOMA) was “active; positive” and the carcinogen call (Species: MOUSE, Strain/Sex: CD-1/FEMALE, Route: DERMAL, Dose: 0, 50 UMOL/0.1 ML DMSO 2/WK FOR 5 WK FOLLOWED 1 WK LATER BY 0.1 ML ACETONE 2/WK FOR 47 WK (STUDY DURATION: 52 WK)) was “inactive; negative”. The carcinogen call (Species: RAT, Strain/Sex: F344/FEMALE, Route: GAVAGE, Dose: 0, 30, 60 MG/KG IN CORN OIL 5 D/WK FOR 103 WK (STUDY DURATION: 105 WK), Dose: 0, 30, 60 MG/KG IN CORN OIL 5 D/WK FOR 103 WK (STUDY DURATION: 105 WK)) was “inactive; negative” and the carcinogen call (Species: RAT, Strain/Sex: F344/MALE, Route: GAVAGE, Dose: 0, 30, 60 MG/KG IN CORN OIL 5 D/WK FOR 103 WK (STUDY DURATION: 105 WK), Dose: 0, 30, 60 MG/KG IN CORN OIL 5 D/WK FOR 103 WK (STUDY DURATION: 105 WK), Tumor Site: Type of Lesion: BILE DUCT: CHOLANGIOCARCINOMA) was “active; positive”.

`CNC(=O)Oc1cccc2c1OC(C)(C)C2` was tested, and the carcinogen call (Species: MOUSE, Strain/Sex: ICR/FEMALE, Route: ORAL, Dose: 0, 3, 8 PPM IN DRINKING WATER FOR 12 MO (STUDY DURATION: 12 MO), Dose: 0, 3, 8 PPM IN DRINKING WATER FOR 12 MO (STUDY DURATION: 12 MO)) was “inactive; negative”, the carcinogen call (Species: MOUSE, Strain/Sex: ICR/MALE, Route: ORAL, Dose: 0, 3, 8 PPM IN DRINKING WATER FOR 12 MO (STUDY DURATION: 12 MO), Dose: 0, 3, 8 PPM IN DRINKING WATER FOR 12 MO (STUDY DURATION: 12 MO)) was “inactive; negative” and the carcinogen call (Species: Mouse, Strain/Sex: Charles River CD-1/Female (60/group), Route: Oral, Dose: 0, 20, 125, 500 ppm in diet for 2 yrs, Dose: 0, 20, 125, 500 ppm in diet for 2 yrs) was “inactive; negative (study details not given in source; purity 95.6%)”. For the same compound, the carcinogen call (Species: Mouse, Strain/Sex: Charles River CD-1/Male (60/group), Route: Oral, Dose: 0, 20, 125, 500 ppm in diet for 2 yrs, Dose: 0, 20, 125, 500 ppm in diet for 2 yrs) was “inactive; negative (study details not given in source; purity 95.6%)”, the carcinogen call (Species: Rat, Strain/Sex: Charles River CD/Female (60/group), Route: Oral, Dose: 0, 10, 20, 100 ppm in diet for 2 yrs, Dose: 0, 10, 20, 100 ppm in diet for 2 yrs) was “inactive; negative (study details not given in source; purity 95.6%)” and the carcinogen call (Species: Rat, Strain/Sex: Charles River CD/Male (60/group), Route: Oral, Dose: 0, 10, 20, 100 ppm in diet for 2 yrs, Dose: 0, 10, 20, 100 ppm in diet for 2 yrs) was “inactive; negative (study details not given in source; purity 95.6%)”.
